The text below walks through data of ChEMBL document CHEMBL1134573, “Utilization of a peptide lead for the discovery of a novel PTP1B-binding motif” (J Med Chem, 2001).

Starred links: 1 amine or outer side, 2 acyl side, 3 side chain; linkers in the order of their positions; H or OH if unused. Non-standard residues stand in square brackets, D forms with d. Residues, ends and D or L forms follow the SMILES beside them. X1 = O=C(O)COc1ccc(C[C@H](N[*:1])C(=O)[*:2])cc1C(=O)O; F2Pmp = N[C@@H](Cc1ccc(C(F)(F)P(=O)(O)O)cc1)C(=O)O Where only a bound is given, the exact number is not on record here.

This assay has as its target T1, Tyrosine-protein phosphatase non-receptor type 1 (Homo sapiens, UniProt P18031).
T1 sequence (P18031 whole entry): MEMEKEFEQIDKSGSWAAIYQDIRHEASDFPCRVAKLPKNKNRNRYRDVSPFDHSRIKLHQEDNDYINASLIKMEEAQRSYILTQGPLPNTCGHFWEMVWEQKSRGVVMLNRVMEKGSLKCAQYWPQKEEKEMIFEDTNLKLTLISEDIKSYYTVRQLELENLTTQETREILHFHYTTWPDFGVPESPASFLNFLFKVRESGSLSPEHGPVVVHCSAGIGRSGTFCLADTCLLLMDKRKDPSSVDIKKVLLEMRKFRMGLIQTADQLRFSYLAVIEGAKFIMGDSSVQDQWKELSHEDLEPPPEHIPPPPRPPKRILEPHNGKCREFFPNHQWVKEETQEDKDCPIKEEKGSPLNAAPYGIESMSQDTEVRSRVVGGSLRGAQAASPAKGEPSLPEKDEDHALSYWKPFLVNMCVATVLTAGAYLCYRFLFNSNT
The assay can be described thus: Inhibitory activity against human Protein-tyrosinephosphatase 1B (PTP1B).

In general, IC50 refers to the concentration that inhibits the measured activity by half. `COc1ccc2cc(C(=O)O)ccc2c1C(=O)O` gave an IC50 of 20 mM.

With `O=S(=O)(O)c1ccc2c(S(=O)(=O)O)cc(S(=O)(=O)O)cc2c1`, the IC50 was above 4 mM.

Molecule `O=S(=O)(O)c1ccc2cc(S(=O)(=O)O)ccc2c1` yielded an IC50 above 4 mM.

As to `O=C(O)c1ccc2cc(OC(F)(F)C(=O)O)ccc2c1`, it took 9.4 mM to reach half-maximal inhibition (IC50).

The molecule `CS(=O)(=O)Nc1cccc2cc(S(=O)(=O)O)ccc12` showed an IC50 of 29 mM.

As usually defined, the Ki is the equilibrium dissociation constant of an inhibitor or competing ligand from its target. The molecule `O=C(O)c1ccc2c(C(=O)O)cccc2c1` showed a Ki of 0.031 mM.

Molecule `O=C(O)COc1cc2ccc(C(=O)O)cc2cc1C(=O)O` returned a Ki of 0.25 mM.

Molecule `O=S(=O)([O-])c1cccc2c(S(=O)(=O)[O-])cccc12.[Na+].[Na+]` returned an IC50 of 28 mM.

The molecule `NC(=O)[C@H](CCC(=O)O)NC(=O)c1ccc2c(C(=O)O)c(OCC(=O)O)ccc2c1` gave an IC50 of 3.8 mM.

With `O=C(O)COc1ccc2cc(C(=O)O)ccc2c1C(=O)O`, the Ki was 0.9 mM.

Consider `O=C(O)c1ccc2ccc(C(=O)O)cc2c1`, for which the IC50 was above 3.2 mM.

`COC(=O)c1ccc2c(C(=O)O)c(OC)ccc2c1` registered an IC50 of 2.8 mM.

`O=C(O)c1ccc2cc(C(=O)O)ccc2c1` came in with an IC50 above 4 mM.

`NC(=O)[C@@H](CCC(=O)O)NC(=O)c1ccc2cc(C(F)(F)P(=O)(O)O)ccc2c1` yielded a Ki of 0.012 mM.

In turn, `O=C(O)c1ccc2cc(C(F)(F)P(=O)(O)O)ccc2c1` returned a Ki of 0.022 mM.

`O=C(O)c1ccc2c(C(=O)O)c(O)ccc2c1` gave a 50% inhibitory concentration (IC50) of 12 mM.

In turn, `O=C(O)COc1ccc2cc(C(=O)O)ccc2c1` returned an IC50 of 9.4 mM.

On to `CC(=O)N[C@@H](CC(=O)O)C(=O)N[C@@H](C)C(=O)N[C@@H](CC(=O)O)C(=O)N[C@@H](CCC(=O)O)C(=O)N[C@@H](Cc1ccc(C(F)(F)P(=O)(O)O)cc1)C(=O)N[C@@H](CC(C)C)C(N)=O` (Ac-DADE[F2Pmp]L-NH2), for which the Ki came to 0.0002 mM.

In turn, `CC(=O)N[C@@H](CC(=O)O)C(=O)N[C@@H](C)C(=O)N[C@@H](CC(=O)O)C(=O)N[C@@H](CCC(=O)O)C(=O)N[C@@H](Cc1ccc(OCC(=O)O)c(C(=O)O)c1)C(=O)N[C@@H](CC(C)C)C(N)=O` (Ac-DADE[X1]L-NH2) had a Ki of 0.0036 mM.
